# According to patent US8557767B2, “Synthetic apolipoprotein E mimicking polypeptides and methods of use” (UAB Research Foundation, priority 2007, dated 2013):
# Tests used:
# human VLDL = conditions: cited from earlier work
# [1] = tested on: atherogenic apo B-containing lipoproteins in human plasma; conditions: cited from earlier work
# apo E null mice [2] = assay: Plasma cholesterol in apo E null mice after i.v. 18L-2Y or R18L-2Y; format: in vivo; conditions: 100 ug i.v.
# Source text: Dual domain peptide that has LRKLRKRLLR (SEQ ID NO: 1), a sequence from apo E putative receptor binding domain, covalently linked to 18A (SEQ ID NO: 11) enhances uptake and degradation of apo B-containing lipoproteins. […] It has also been previously shown that that if the Lys residues are replaced by Arg, compared to the Lys-containing peptide, the resulting Arg-containing peptide has only 2% of lysis (Aikawa, M., et al. Circulation 106:1390-1396 2002). […] Rearrangement of the nonpolar face of 18L to incorporate aromatic residues at the center of the nonpolar face yields 18L-2. Addition of Tyr (for radiolabeling) yields 18L-2Y (FIG. 15). All of the Lys residues changed to Arg results in R18L2Y (FIG. 15).
# apo E null mice [3] = assay: Oral feeding of peptides in chow to apo E null mice: plasma cholesterol and aortic sinus lesion
# Experimental: The peptides were mixed in normal chow (1 mg/4 g chow) and fed ad libitum.
# The study was continued for 6 weeks.
# HepG2 cells = assay: Apo A-I / prebeta-HDL secretion by HepG2 cells; format: cell-based; conditions: for prebeta-HDL production: equal amount on weight basis (50 ug/ml), first overnight incubation; for prebeta-HDL amount after second and third overnight incubation: fresh cell medium without peptide
# apo E null mice [4] = assay: Plasma cholesterol in apo E null mice after i.v. dual-domain peptides; format: in vivo; conditions: iv, n=4
# Experimental: The peptides represented are Ac-hE-18A-NH2, Ac-hE4F-NH2, and Ac-hE-Sc2F-NH2. Peptides Ac-hE-18A-NH2, Ac-hE-4F-NH2 and Ac-hE-Sc18A were administered (i.v.) to apo E null mice (n=4) and plasma cholesterol values were determined at before administration (0 min), 5 min and 2 h after administration.
# As described above, peptides Ac-hE-18A-NH2, Ac-hE-4F-NH2 and Ac-hE-Sc18A were administered (iv) to apo E null mice (n=4) and plasma cholesterol values were determined at before administration (0 min), 5 min and 2 h after administration.
Substance,association with atherogenic apo B-containing lipoproteins [1],prebeta-HDL production (HepG2 cells),prebeta-HDL amount after second and third overnight incubation (HepG2 cells),also measured
Ac-18A-NH2: control peptide; end protected 18A (DWLKAFYDKVAEKLKEAF) (Ac-DWLKAFYDKVAEKLKEAF-NH2) [reference compound],not,,,interaction with VLDL (human VLDL): displacement of apo E from VLDL
Ac-GFRRFLGSWARIYRAFVG-NH2 [R18L-2Y],,,,"ability to clear plasma cholesterol (apo E null mice [2]): increased ability to clear plasma cholesterol compared to 18L-2Y; plasma cholesterol at end of 6 week feeding (apo E null mice [3]; 1 mg per 4 g chow): significantly reduced; atherosclerotic lesion formation, aortic sinus, Oil Red O (apo E null mice [3]; 1 mg per 4 g chow, 6 weeks, four week old female mice): significantly less lesion formation; plasma cholesterol levels at 15 days and 30 days (apo E null mice [3]; 1 mg/4 g of chow per animal per day, n=5): significant decrease"
"Ac-hE-4F-NH2: dual-domain cationic peptide, hE linked to 4F, end protected (Ac-LRKLRKRLLRDWFKAFYDKVAEKFKEAF-NH2)",,produced preβ-HDL,produced significant amounts,reduction in plasma cholesterol levels at 2 h time point (apo E null mice [4]): large reduction
"DWFKAFYDKVAEKFKEAF [4F, reference compound]",,produced preβ-HDL,levels similar to that of control cell medium,
LRKLRKRLLR,not,,,
